Data on four molecules can be found in patent US12123010B2, “Plants having increased tolerance to herbicides” (BASF SE, priority 2017, dated 2024).

The target in assay [1] is Wild Type PPO Enzyme (Amaranthus PPO2, SEQ ID NO: 1) (Amaranthus tuberculatus, UniProt Q0NZW9). Briefly: PPO enzyme assay (recombinant), wild type. It is filed as biochemical.
Assay [2] concerns Transgenic T2 Arabidopsis plants and ARBTH WT MC24 non-transgenic. Description: Greenhouse post spray test, injury 14 DAT (Tables ii, iii).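 As to all read-outs here: value is percent injury to the sprayed plants.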 The conditions noted are these: Arabidopsis thaliana, 336 h, Table ii; for pest or weed control at 50 g/ha: 50 g ai/ha; for pest or weed control at 100 g/ha: 100 g ai/ha; for pest or weed control at 200 g/ha: 200 g ai/ha. It is filed as in vivo, Arabidopsis thaliana.

In assay [3] the test system is Variant PPO Enzyme L397E, F420M (Amaranthus PPO2). Type of assay: biochemical. Conditions: variant L397E, F420M vs wild type.
Assay [4] concerns Variant PPO Enzyme R128A, F420M (Amaranthus PPO2). It is filed as biochemical. Conditions: variant R128A, F420M vs wild type.
Assay [5] deals with Transgenic T2 Arabidopsis plants harboring PPO inhibitor tolerance trait. Description: Lab based germination assay in 48-well plates (Table i). It is filed as in vivo, Arabidopsis thaliana. Conditions: construct AMATU_PPO2_TP_hemG (Escherichia coli); in comparison to wild type plants.
Assay [6] deals with Variant PPO Enzyme F420M (Amaranthus PPO2). Briefly: biochemical. It is filed as biochemical. Conditions: variant F420M vs wild type.
Assay [7] relates to Variant PPO Enzyme R128A, F420V (Amaranthus PPO2). Briefly: biochemical. Type of assay: biochemical. The conditions noted are these: variant R128A, F420V vs wild type.
Where [8] appears, read: AMATU_PPO2_WT event Q, 1 g ai/ha.
[9] abbreviates: AMATU_PPO2_WT event Q, 5 g ai/ha.
Where [10] appears, read: AMATU_PPO2_WT event Q, 10 g ai/ha.
Where [11] appears, read: AMATU_PPO2_WT event Q, 30 g ai/ha.
[12] abbreviates: ARBTH WT MC24 non-transgenic, 1 g ai/ha + 1% MSO.
Setting [13] is: ARBTH WT MC24 non-transgenic, 5 g ai/ha + 1% MSO.
Setting [14] is: ARBTH WT MC24 non-transgenic, 10 g ai/ha + 1% MSO.
Where [15] appears, read: ARBTH WT MC24 non-transgenic, 30 g ai/ha + 1% MSO.
[16] abbreviates: ARBTH WT MC24 non-transgenic, 80 g ai/ha + 1% MSO.
Setting [17] is: ARBTH_PPO1_S305L_Y426M event O, 5 g ai/ha.
The mark [18] stands for this setting: ARBTH_PPO1_S305L_Y426M event O, 10 g ai/ha.
The mark [19] stands for this setting: ARBTH_PPO1_S305L_Y426M event O, 30 g ai/ha.
Setting [20] is: ARBTH_PPO1_S305L_Y426M event O, 80 g ai/ha.
The mark [21] stands for this setting: ARBTH_PPO1_WT event Q, 1 g ai/ha.
Setting [22] is: ARBTH_PPO1_WT event Q, 5 g ai/ha.
The mark [23] stands for this setting: ARBTH_PPO1_WT event Q, 10 g ai/ha.
[24] abbreviates: ARBTH_PPO1_WT event Q, 30 g ai/ha.

Sequence of Wild Type PPO Enzyme (Amaranthus PPO2, SEQ ID NO: 1) (Q0NZW9 1-534): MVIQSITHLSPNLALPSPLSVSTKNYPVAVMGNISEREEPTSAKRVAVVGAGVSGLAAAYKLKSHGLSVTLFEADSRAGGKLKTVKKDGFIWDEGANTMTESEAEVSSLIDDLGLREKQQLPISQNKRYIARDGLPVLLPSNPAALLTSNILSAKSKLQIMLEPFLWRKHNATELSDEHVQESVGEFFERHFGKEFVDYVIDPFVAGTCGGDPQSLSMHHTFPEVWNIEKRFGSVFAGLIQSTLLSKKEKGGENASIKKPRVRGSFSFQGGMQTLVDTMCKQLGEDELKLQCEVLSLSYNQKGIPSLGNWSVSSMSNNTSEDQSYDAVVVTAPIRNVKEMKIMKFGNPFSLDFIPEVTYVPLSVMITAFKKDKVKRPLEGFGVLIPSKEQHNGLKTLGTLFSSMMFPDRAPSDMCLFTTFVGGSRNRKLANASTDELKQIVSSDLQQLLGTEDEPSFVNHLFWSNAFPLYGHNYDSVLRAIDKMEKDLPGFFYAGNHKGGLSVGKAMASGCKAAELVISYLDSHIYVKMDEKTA

A word on the IC50: it is the concentration needed to halve the response being measured. The term pest or weed control denotes how far the test organism was held down. Consider `Cn1c(C(F)(F)F)cc(=O)n(-c2nc(Oc3ccccc3OCC(=O)NS(C)(=O)=O)c(Cl)cc2F)c1=O` [Uracilpyridine 10, 2-[2-[[3-chloro-5-fluoro-6-[3-methyl-2,6-dioxo-4-(trifluoromethyl)pyrimidin-1-yl]-2-pyridyl]oxy]phenoxy]-N-methylsulfonyl-acetamide], for which the half-inhibitory concentration (IC50) in assay [1] is 0.212 nM. Moreover, the pest or weed control at 50 g/ha in assay [2] (ALOMY_PPO2_R137L_F438V event F) came out at 0%; in assay [2] (ALOMY_PPO2_R137L_F438V event G) it was 0%; in assay [2] (AMATU_PPO2_L397E_F420V event D), 0%; in assay [2] (AMATU_PPO2_L397E_F420V event L), 8%; in assay [2] (AMATU_PPO2_R128A_F420V event A), 38%; in assay [2] (AMATU_PPO2_R128A_F420V event D), 30%. The pest or weed control at 100 g/ha in assay [2] (ALOMY_PPO2_R137L_F438V event F) is 8%; in assay [2] (ALOMY_PPO2_R137L_F438V event G), 0%; in assay [2] (AMATU_PPO2_L397E_F420V event D), 5%; in assay [2] (AMATU_PPO2_L397E_F420V event L), 53%; in assay [2] (AMATU_PPO2_R128A_F420V event A), 53%; in assay [2] (AMATU_PPO2_R128A_F420V event D), 78%. Moreover, the pest or weed control at 200 g/ha worked out at 10% in assay [2] (ALOMY_PPO2_R137L_F438V event F); 5% in assay [2] (ALOMY_PPO2_R137L_F438V event G); 13% in assay [2] (AMATU_PPO2_L397E_F420V event D); 20% in assay [2] (AMATU_PPO2_L397E_F420V event L); 68% in assay [2] (AMATU_PPO2_R128A_F420V event A); 88% in assay [2] (AMATU_PPO2_R128A_F420V event D). The results for the pest or weed control at 1 g/ha in assay [2] (setting [8]), in assay [2] (setting [12]) and in assay [2] (setting [21]) were 58%, 100% and 50%, respectively. Moreover, the pest or weed control at 5 g/ha in assay [2] (setting [9]) worked out at 100%; in assay [2] (setting [13]), 100%; in assay [2] (setting [17]) it was 10%; in assay [2] (setting [22]) it was 98%. The pest or weed control at 10 g/ha in assay [2] (setting [10]) stood at 100%; in assay [2] (setting [14]) it was 100%; in assay [2] (setting [18]), 8%; in assay [2] (setting [23]) it was 100%. Also, the pest or weed control at 30 g/ha in assay [2] (setting [11]) was 100%; in assay [2] (setting [15]) it was 100%; in assay [2] (setting [19]), 99%; in assay [2] (setting [24]), 100%. The pest or weed control at 80 g/ha in assay [2] (setting [16]) was 100%; in assay [2] (setting [20]), 99%. For the same molecule, the “Tolerance Factor (R/S)” value was 30714 in assay [3] and 7879 in assay [4].
Regarding `CCOC(=O)COc1ccccc1Oc1nc(-n2c(=O)cc(C(F)(F)F)n(C)c2=O)c(F)cc1F` [Uracilpyridine 8, ethyl 2-[2-[[3,5-difluoro-6-[3-methyl-2,6-dioxo-4-(trifluoromethyl)pyrimidin-1-yl]-2-pyridyl]oxy]phenoxy]acetate], the IC50 in assay [1] came out at 0.496 nM. For the same molecule, the “Tolerance Factor” value in assay [5] amounted to 8202. For the same molecule, the entries for the “Tolerance Factor (R/S)” value in assay [6] and in assay [7] were 139 and 4531, respectively. In addition, the pest or weed control at 1 g/ha is 10% in assay [2] (setting [8]), 88% in assay [2] (setting [12]) and 10% in assay [2] (setting [21]). Also, the pest or weed control at 5 g/ha in assay [2] (setting [9]) was found to be 55%; in assay [2] (setting [13]), 100%; in assay [2] (setting [17]), 0%; in assay [2] (setting [22]), 30%. The pest or weed control at 10 g/ha in assay [2] (setting [10]) was determined as 100%; in assay [2] (setting [14]), 100%; in assay [2] (setting [18]), 0%; in assay [2] (setting [23]), 55%. In addition, the pest or weed control at 30 g/ha in assay [2] (setting [11]) turned out to be 100%; in assay [2] (setting [15]), 100%; in assay [2] (setting [19]), 0%; in assay [2] (setting [24]) it was 100%. Moreover, the pest or weed control at 80 g/ha in assay [2] (setting [16]) is 100%; in assay [2] (setting [20]), 0%.
Consider `Cn1c(C(F)(F)F)cc(=O)n(-c2nc(Oc3ccccc3OCC(=O)O)c(Cl)cc2F)c1=O` [Uracilpyridine 5, 2-[2-[[3-chloro-5-fluoro-6-[3-methyl-2,6-dioxo-4-(trifluoromethyl)pyrimidin-1-yl]-2-pyridyl]oxy]phenoxy]acetic acid], for which the “Tolerance Factor” value in assay [5] is listed as 1400. The figures for the pest or weed control at 1 g/ha in assay [2] (setting [8]), in assay [2] (setting [12]) and in assay [2] (setting [21]) were 28%, 100% and 45%, respectively. Also, the pest or weed control at 5 g/ha turned out to be 90% in assay [2] (setting [9]), 100% in assay [2] (setting [13]), 0% in assay [2] (setting [17]) and 90% in assay [2] (setting [22]). Besides, the pest or weed control at 10 g/ha in assay [2] (setting [10]) is 100%; in assay [2] (setting [14]), 100%; in assay [2] (setting [18]), 0%; in assay [2] (setting [23]), 99%. Moreover, the pest or weed control at 30 g/ha was determined as 100% in assay [2] (setting [11]), 100% in assay [2] (setting [15]), 68% in assay [2] (setting [19]) and 100% in assay [2] (setting [24]). Further, the figures for the pest or weed control at 80 g/ha in assay [2] (setting [16]) and in assay [2] (setting [20]) were 100% and 73%, respectively.
For `Cn1c(C(F)(F)F)cc(=O)n(-c2nc(Oc3cccnc3OCC(=O)O)c(Cl)cc2F)c1=O` [Uracilpyridine 3, 2-[[3-[[3-chloro-5-fluoro-6-[3-methyl-2,6-dioxo-4-(trifluoromethyl)pyrimidin-1-yl]-2-pyridyl]oxy]-2-pyridyl]oxy]acetic acid], the “Tolerance Factor” value in assay [5] is recorded as 1600. Besides, the pest or weed control at 1 g/ha was 48% in assay [2] (setting [8]), 88% in assay [2] (setting [12]) and 10% in assay [2] (setting [21]). Further, the pest or weed control at 5 g/ha in assay [2] (setting [9]) came to 80%; in assay [2] (setting [13]), 100%; in assay [2] (setting [17]), 0%; in assay [2] (setting [22]), 83%. Moreover, the pest or weed control at 10 g/ha was 100% in assay [2] (setting [10]), 100% in assay [2] (setting [14]), 0% in assay [2] (setting [18]) and 98% in assay [2] (setting [23]). In addition, the pest or weed control at 30 g/ha is 100% in assay [2] (setting [11]), 100% in assay [2] (setting [15]), 49% in assay [2] (setting [19]) and 100% in assay [2] (setting [24]). The pest or weed control at 80 g/ha was 100% in assay [2] (setting [16]) and 13% in assay [2] (setting [20]).
